Where two headings read alike, the source gives them in different places.
Experiments:
Assay type in all cases: binding
[1] = target: Recombinant human Bcl-2 protein (Homo sapiens (Human), UniProt P10415); assay: Bcl-2 TR-FRET Assay
Procedure: Biological Example: Bcl-2 TR-FRET Assay
Compounds disclosed herein were tested for blocking of Bcl-2 protein with its ligand in an assay based on Time-Resolved Fluorescence Resonance Energy Transfer (TR-FRET) methodology. Recombinant human 0.05 nM Bcl-2 protein was pre-incubated with a serial dilution of compounds disclosed herein (top final concentration is 1 uM or 0.1 uM or 0.02 uM or 0.01 uM, 10 points) at room temperature for 0.5 hour in an assay buffer containing 20 mM potassium phosphate buffer, pH 7.5, 50 mM NaCl. 1 mM EDTA, 0.05% Tween-20, 0.01% BSA. Then the FITC labeled Bak peptide Ac-GQVGRQLAIIGDK(FITC)INR-amide (0.5 nM) and MAb Anti 6His Tb cryptate Gold were added to plate and further incubated at room temperature for 1 hour. The TR-FRET signals (337 nm-520 nm-490 nm) were read on BMG PHERAstar FSX instrument. The inhibition percentage of Bcl-2 interaction with its ligand in presence of increasing concentrations of compounds was calculated based on the TR-FRET signals. The IC50 for each compound was derived from fitting the data to the four-parameter logistic equation by Graphpad Prism software or Dotmatics.

[2] = target: recombinant human Bcl-2-G101V protein (Homo sapiens (Human), UniProt P10415, G101V); assay: Bcl-2-G101V TR-FRET Assay; conditions: Bcl-2 G101V mutant, TR-FRET; read-out: Biochemical assay (IC50, nM) Bcl-2 G101V
Procedure: (§1) Biological Example: Bcl-2-G101V TR-FRET Assay
(§2) […]. The TR-FRET signals (ex337 nm, em490 nm/520 nm) were read on BMG PHERAstar FSX instrument. The inhibition percentage of Bcl-2-G101V interaction with its ligand in presence of increasing concentrations of compounds was calculated based on the ratio of fluorescence at 490 nm to that at 520 nm. The IC50 for each compound was derived from fitting the data to the four-parameter logistic equation by Graphpad Prism software or Dotmatics.

[3] = system: recombinant human Bcl-2-G101V protein; assay: Bcl-2-G101V TR-FRET Assay; conditions: ratio of biochemical IC50 Bcl-2 G101V / Bcl-2 WT
Procedure: as §1, §2

[4] = target: recombinant human Bcl-2 D103Y protein (Homo sapiens (Human), UniProt P10415, D103Y); assay: Bcl-2-D103Y Biochemical Assay (TR-FRET); conditions: for IC50: TR-FRET, FITC labeled Bak peptide; for Ratio of Bcl-2 D103Y/Bcl-2 WT: ratio of IC50
Procedure: Biological Example: Bcl-2-D103Y Biochemical Assay
as §2, with “Bcl-2 D103Y” for “Bcl-2-G101V”, “by” for “by Graphpad Prism software or”

[5] = Bcl-2 wild type, TR-FRET, read-out: Biochemical assay (IC50, nM) Bcl-2 WT
[6] = wild type Bcl-2, unit inferred, read-out: Bcl-2 WT

| Compound | IC50 [1, 5] [nM] | IC50 [1, 6] [nM] | IC50 [2] [nM] | Ratio of Bcl-2 G101V/WT [3] | IC50 [4] [nM] | Ratio of Bcl-2 D103Y/Bcl-2 WT [4] |
| --- | --- | --- | --- | --- | --- | --- |
| CC(C)c1ccccc1C1CN(Cc2ccc(OC(F)(F)F)cc2)CCN1C1CC2(CCN(c3ccc(C(=O)NS(=O)(=O)c4ccc(NC[C@H]5CC[C@](C)(O)CC5)c([N+](=O)[O-])c4)c(Oc4cnc5[nH]ccc5c4)c3)CC2)C1 (stereo partly drawn) [Example 39, 2-((1H-pyrrolo[2,3-b]pyridin-5-yl)oxy)-N-((4-((((1r,4r)-4-hydroxy-4-methylcyclohexyl)methyl)amino)-3-nitrophenyl)sulfonyl)-4-(2-(2-(2-isopropylphenyl)-4-(4-(trifluoromethoxy)benzyl)piperazin-1-yl)-7-azaspiro[3.5]nonan-7-yl)benzamide] | 1.1 | 1.1 | 6.7 | 6.1 | 3.8 | 3.5 |
| CC(C)c1ccccc1C1CN(Cc2ccc(Cl)c(Cl)c2)CCN1C1CC2(CCN(c3ccc(C(=O)NS(=O)(=O)c4ccc(NC[C@H]5CC[C@](C)(O)CC5)c([N+](=O)[O-])c4)c(Oc4cnc5[nH]ccc5c4)c3)CC2)C1 (stereo partly drawn) [Example 117, 2-((1H-pyrrolo[2,3-b]pyridin-5-yl)oxy)-4-(2-(4-(3,4-dichlorobenzyl)-2-(2-isopropylphenyl)piperazin-1-yl)-7-azaspiro[3.5]nonan-7-yl)-N-((4-((((1r,4r)-4-hydroxy-4-methylcyclohexyl)methyl)amino)-3-nitrophenyl)sulfonyl)benzamide] | 1.6 |  | 7.1 | 4.4 |  |  |
| CC(C)c1ccccc1C1CN(Cc2cccc3c2OC(F)(F)O3)CCN1C1CC2(CCN(c3ccc(C(=O)NS(=O)(=O)c4ccc(NC[C@H]5CC[C@](C)(O)CC5)c([N+](=O)[O-])c4)c(Oc4cnc5[nH]ccc5c4)c3)CC2)C1 (stereo partly drawn) [Example 129, 2-((1H-pyrrolo[2,3-b]pyridin-5-yl)oxy)-4-(2-(4-((2,2-difluorobenzo [d][1,3]dioxol-4-yl)methyl)-2-(2-isopropylphenyl)piperazin-1-yl)-7-azaspiro[3.5]nonan-7-yl)-N-((4-((((1r,4r)-4-hydroxy-4-methylcyclohexyl)methyl)amino)-3-nitrophenyl)sulfonyl)benzamide] | 1.8 |  | 7.8 | 4.4 |  |  |
| COc1ccc(N2CCCC(N3CCN(C4CC5(CCN(c6ccc(C(=O)NS(=O)(=O)c7ccc(NC[C@H]8CC[C@](C)(O)CC8)c([N+](=O)[O-])c7)c(Oc7cnc8[nH]ccc8c7)c6)CC5)C4)C(c4ccccc4C(C)C)C3)C2)cc1 (stereo partly drawn) [Example 139, 2-((1H-pyrrolo[2,3-b]pyridin-5-yl)oxy)-N-((4-((((1r,4r)-4-hydroxy-4-methylcyclohexyl)methyl)amino)-3-nitrophenyl)sulfonyl)-4-(2-(2-(2-isopropylphenyl)-4-(1-(4-methoxyphenyl)piperidin-3-yl)piperazin-1-yl)-7-azaspiro[3.5]nonan-7-yl)benzamide] | 0.65 |  | 5.6 | 8.7 |  |  |
| COc1ccc(CN2CCN(C3CC4(CCN(c5ccc(C(=O)NS(=O)(=O)c6ccc(NCC7(F)CCC(C)(O)CC7)c([N+](=O)[O-])c6)c(Oc6cnc7[nH]ccc7c6)c5)CC4)C3)[C@H](c3ccccc3C(C)C)C2)cc1 (stereo partly drawn) [Example 226, (R)-2-((1H-pyrrolo[2,3-b]pyridin-5-yl)oxy)-N-((4-(((1-fluoro-4-hydroxy-4-methylcyclohexyl)methyl)amino)-3-nitrophenyl)sulfonyl)-4-(2-(2-(2-isopropylphenyl)-4-(4-methoxybenzyl)piperazin-1-yl)-7-azaspiro[3.5]nonan-7-yl) benzamide] | 0.17 | 0.17 | 0.64 | 3.9 | 0.16 | 1 |
| COc1cc(CN2CCN(C3CC4(CCN(c5ccc(C(=O)NS(=O)(=O)c6ccc(NC[C@H]7CC[C@](C)(O)CC7)c([N+](=O)[O-])c6)c(Oc6cnc7[nH]ccc7c6)c5)CC4)C3)C(c3ccccc3C(C)C)C2)cc(C(F)(F)F)c1 (stereo partly drawn) [Example 227, 2-((1H-pyrrolo[2,3-b]pyridin-5-yl)oxy)-N-((4-((((1r,4r)-4-hydroxy-4-methylcyclohexyl)methyl)amino)-3-nitrophenyl)sulfonyl)-4-(2-(2-(2-isopropylphenyl)-4-(3-methoxy-5-(trifluoromethyl)benzyl)piperazin-1-yl)-7-azaspiro[3.5]nonan-7-yl) benzamide] | 2 |  | 6.4 | 3.2 |  |  |
| COc1ccc(CN2CCN(C3CC4(CCN(c5ccc(C(=O)NS(=O)(=O)c6ccc(NC[C@H]7CC[C@](C)(O)CC7)c([N+](=O)[O-])c6)c(Oc6cnc7[nH]ccc7c6)c5)CC4)C3)C(c3cc(Cl)ccc3C(C)C)C2)cc1 (stereo partly drawn) [Example 247, 2-((1H-pyrrolo[2,3-b]pyridin-5-yl)oxy)-4-(2-(2-(5-chloro-2-isopropylphenyl)-4-(4-methoxybenzyl)piperazin-1-yl)-7-azaspiro[3.5]nonan-7-yl)-N-((4-((((1r,4r)-4-hydroxy-4-methylcyclohexyl)methyl)amino)-3-nitrophenyl)sulfonyl)benzamide] | 0.8 |  | 3.3 | 4.2 |  |  |
| COc1cc(CN2CCN(C3CC4(CCN(c5ccc(C(=O)NS(=O)(=O)c6ccc(NC[C@H]7CC[C@](C)(O)CC7)c([N+](=O)[O-])c6)c(Oc6cnc7[nH]cc(F)c7c6)c5)CC4)C3)[C@H](c3ccccc3C(C)C)C2)ccc1C(F)(F)F [Example 279] | 2 |  | 6.3 | 3.2 |  |  |
| COc1cc(CN2CCN(C3CC4(C3)CN(c3ccc(C(=O)NS(=O)(=O)c5ccc(NC[C@H]6CC[C@](C)(O)CC6)c([N+](=O)[O-])c5)c(Oc5cnc6[nH]cc(F)c6c5)c3)C4)[C@H](c3ccccc3C(C)C)C2)ccc1C(F)(F)F [Example 289, 2-((3-fluoro-1H-pyrrolo[2,3-b]pyridin-5-yl)oxy)-N-((4-((((1r,4r)-4-hydroxy-4-methylcyclohexyl)methyl)amino)-3-nitrophenyl)sulfonyl)-4-(6-((R)-2-(2-isopropylphenyl)-4-(3-methoxy-4-(trifluoromethyl)benzyl)piperazin-1-yl)-2-azaspiro[3.3]heptan-2-yl) benzamide] | 1.7 |  | 4 | 2.3 |  |  |
| COc1cc(CN2CCN(C3CC4(CCN(c5ccc(C(=O)NS(=O)(=O)c6ccc(NC[C@H]7CC[C@](C)(O)CC7)c([N+](=O)[O-])c6)c(Oc6cnc7[nH]ccc7c6)c5)CC4)C3)[C@H](c3ccccc3C(C)C)C2)ccc1CC(C)C [Example 293] | 3.2 |  | 11 | 3.4 |  |  |
| COc1cc(CN2CCN(C3CC4(CCN(c5ccc(C(=O)NS(=O)(=O)c6ccc(NC[C@H]7CC[C@](C)(O)CC7)c([N+](=O)[O-])c6)c(Oc6cnc7[nH]ccc7c6)c5)CC4)C3)[C@H](c3ccccc3C(C)C)C2)ccc1C1CCCC1 [Example 294, 2-((1H-pyrrolo[2,3-b]pyridin-5-yl)oxy)-4-(2-((R)-4-(4-cyclopentyl-3-methoxybenzyl)-2-(2-isopropylphenyl)piperazin-1-yl)-7-azaspiro[3.5]nonan-7-yl)-N-((4-((((1r,4r)-4-hydroxy-4-methylcyclohexyl)methyl)amino)-3-nitrophenyl)sulfonyl)benzamide] | 3.2 |  | 10 | 3.2 |  |  |
| CC(C)c1ccccc1[C@@H]1CN(Cc2ccc(C3CCOCC3)cc2)CCN1C1CC2(C1)CN(c1ccc(C(=O)NS(=O)(=O)c3ccc(NC[C@H]4CC[C@](C)(O)CC4)c([N+](=O)[O-])c3)c(Oc3cnc4[nH]cc(F)c4c3)c1)C2 [Example 370, 2-((3-fluoro-1H-pyrrolo[2,3-b]pyridin-5-yl)oxy)-N-((4-((((1r,4r)-4-hydroxy-4-methylcyclohexyl)methyl)amino)-3-nitrophenyl)sulfonyl)-4-(6-((R)-2-(2-isopropylphenyl)-4-(4-(tetrahydro-2H-pyran-4-yl)benzyl)piperazin-1-yl)-2-azaspiro[3.3]heptan-2-yl) benzamide] | 0.18 |  | 0.67 | 3.7 |  |  |
